Data reported in patent publication US20170354148A1, “SAFENED HERBICIDAL COMPOSITIONS CONTAINING HALAUXIFEN AND METHODS OF USE THEREOF IN BRASSICA SPECIES” (Dow AgroSciences LLC, priority 2016, published 2017).

Assays:
[1] = system: winter oilseed rape (Brassica napus, BRSNW); assay: Example 5 greenhouse trials, postemergence visual injury; conditions: for % Visual Injury Obs / Visual Injury Obs: BRSNW
[2] = system: Nexera™ canola (Brassica napus, BRSNN-NEX); assay: as above; conditions: for % Visual Injury Obs / Visual Injury Obs: BRSNN-NEX
[3] = system: turnip or Polish canola (Brassica rapa, BRSRR); assay: as above; conditions: for % Visual Injury Obs / Visual Injury Obs: BRSRR
[4] = system: Roundup Ready® canola (Brassica napus, RR-BRSNN); assay: as above; conditions: for % Visual Injury Obs / Visual Injury Obs: RR-BRSNN
[5] = system: rutabaga (Brassica napus var. napobrassica, BRSNA); assay: as above; conditions: for % Visual Injury Obs / Visual Injury Obs: BRSNA
[6] = system: kale/Chinese kale (Brassica alboglabra, BRSAG); assay: as above; conditions: for % Visual Injury Obs / Visual Injury Obs: BRSAG
[7] = system: Spring Argentine canola (Brassica napus, BRSNS); assay: Example 3 field trials (Canada), postemergence crop safety, visual phytotoxicity; conditions: alone or mixed

CCOC(=O)C1=NN(c2ccc(Cl)cc2Cl)C(C)(C(=O)OCC)C1 (racemic) [Mefenpyr-diethyl, diethyl (RS)-1-(2,4-dichlorophenyl)-5-methyl-2-pyrazoline-3,5-dicarboxylate]
Percent (%) Visual Injury BRSNW Obs ([1]; safener alone 5 g ai/ha): 0%
Percent (%) Visual Injury BRSNW Obs ([1]; safener alone 10 g ai/ha): 0%
Percent (%) Visual Injury BRSNW Obs ([1]; safener alone 20 g ai/ha): 0%
Percent (%) Visual Injury BRSNW Obs ([1]; safener alone 40 g ai/ha): 0%
Percent (%) Visual Injury BRSNN-NEX Obs ([2]; safener alone 5 g ai/ha): 0%
Percent (%) Visual Injury BRSNN-NEX Obs ([2]; safener alone 10 g ai/ha): 0%
Percent (%) Visual Injury BRSNN-NEX Obs ([2]; safener alone 20 g ai/ha): 0%
Percent (%) Visual Injury BRSNN-NEX Obs ([2]; safener alone 40 g ai/ha): 0%
Percent (%) Visual Injury BRSRR Obs ([3]; safener alone 5 g ai/ha): 0%
Percent (%) Visual Injury BRSRR Obs ([3]; safener alone 10 g ai/ha): 0%
Percent (%) Visual Injury BRSRR Obs ([3]; safener alone 20 g ai/ha): 0%
Percent (%) Visual Injury BRSRR Obs ([3]; safener alone 40 g ai/ha): 0%
Percent (%) Visual Injury RR-BRSNN Obs ([4]; safener alone 5 g ai/ha): 0%
Percent (%) Visual Injury RR-BRSNN Obs ([4]; safener alone 10 g ai/ha): 0%
Percent (%) Visual Injury RR-BRSNN Obs ([4]; safener alone 20 g ai/ha): 0%
Percent (%) Visual Injury RR-BRSNN Obs ([4]; safener alone 40 g ai/ha): 0%
Percent (%) Visual Injury BRSNA Obs ([5]; safener alone 5 g ai/ha): 0%
Percent (%) Visual Injury BRSNA Obs ([5]; safener alone 10 g ai/ha): 0%
Percent (%) Visual Injury BRSNA Obs ([5]; safener alone 20 g ai/ha): 0%
Percent (%) Visual Injury BRSNA Obs ([5]; safener alone 40 g ai/ha): 0%
Percent (%) Visual Injury BRSAG Obs ([6]; safener alone 5 g ai/ha): 0%
Percent (%) Visual Injury BRSAG Obs ([6]; safener alone 10 g ai/ha): 0%
Percent (%) Visual Injury BRSAG Obs ([6]; safener alone 20 g ai/ha): 0%
Percent (%) Visual Injury BRSAG Obs ([6]; safener alone 40 g ai/ha): 0%

O=C(O)c1c(Cl)ccc2cc(Cl)cnc12 [Quinclorac, 3,7-dichloro-8-quinolinecarboxylic acid]
Mean % Visual Injury ([7]; Table 14, 7DAAA, halauxifen-methyl 5, quinclorac 101 g ae/ha): 0.8%
Mean % Visual Injury ([7]; Table 14, 15DAAA, halauxifen-methyl 5, quinclorac 101 g ae/ha): 1.0%
Mean % Visual Injury ([7]; Table 14, 27DAAA, halauxifen-methyl 5, quinclorac 101 g ae/ha): 3.0%
Mean % Visual Injury ([7]; Table 14, 57DAAA, halauxifen-methyl 5, quinclorac 101 g ae/ha): 1.5%
Mean % Visual Injury ([7]; Table 15, 7DAAA, halauxifen-methyl 5, clopyralid-olamine 150, quinclorac 101 g ae/ha): 0.8%
Mean % Visual Injury ([7]; Table 15, 15DAAA, halauxifen-methyl 5, clopyralid-olamine 150, quinclorac 101 g ae/ha): 1.0%
Mean % Visual Injury ([7]; Table 15, 27DAAA, halauxifen-methyl 5, clopyralid-olamine 150, quinclorac 101 g ae/ha): 3.0%
Mean % Visual Injury ([7]; Table 15, 57DAAA, halauxifen-methyl 5, clopyralid-olamine 150, quinclorac 101 g ae/ha): 1.5%
Mean % Visual Injury ([7]; Table 21, 8DAAA, halauxifen-methyl 5, quinclorac 101 g ae/ha): 3.5%
Mean % Visual Injury ([7]; Table 21, 14DAAA, halauxifen-methyl 5, quinclorac 101 g ae/ha): 1.0%
Mean % Visual Injury ([7]; Table 21, 40DAAA, halauxifen-methyl 5, quinclorac 101 g ae/ha): 0.5%
Mean % Visual Injury ([7]; Table 21, 81DAAA, halauxifen-methyl 5, quinclorac 101 g ae/ha): 0.0%
Mean % Visual Injury ([7]; Table 22, 8DAAA, halauxifen-methyl 5, clopyralid-olamine 150, quinclorac 101 g ae/ha): 3.5%
Mean % Visual Injury ([7]; Table 22, 14DAAA, halauxifen-methyl 5, clopyralid-olamine 150, quinclorac 101 g ae/ha): 1.0%
Mean % Visual Injury ([7]; Table 22, 40DAAA, halauxifen-methyl 5, clopyralid-olamine 150, quinclorac 101 g ae/ha): 0.5%
Mean % Visual Injury ([7]; Table 22, 81DAAA, halauxifen-methyl 5, clopyralid-olamine 150, quinclorac 101 g ae/ha): 0.0%
Mean % Visual Injury ([7]; Table 27, 7DAAA, halauxifen-methyl 5, quinclorac 101 g ae/ha): 2.3%
Mean % Visual Injury ([7]; Table 27, 17DAAA, halauxifen-methyl 5, quinclorac 101 g ae/ha): 1.8%
Mean % Visual Injury ([7]; Table 27, 32DAAA, halauxifen-methyl 5, quinclorac 101 g ae/ha): 5.3%
Mean % Visual Injury ([7]; Table 27, 49DAAA, halauxifen-methyl 5, quinclorac 101 g ae/ha): 0.5%
Mean % Visual Injury ([7]; Table 28, 7DAAA, halauxifen-methyl 5, clopyralid-olamine 150, quinclorac 101 g ae/ha): 2.3%
Mean % Visual Injury ([7]; Table 28, 17DAAA, halauxifen-methyl 5, clopyralid-olamine 150, quinclorac 101 g ae/ha): 1.8%
Mean % Visual Injury ([7]; Table 28, 32DAAA, halauxifen-methyl 5, clopyralid-olamine 150, quinclorac 101 g ae/ha): 5.3%
Mean % Visual Injury ([7]; Table 28, 49DAAA, halauxifen-methyl 5, clopyralid-olamine 150, quinclorac 101 g ae/ha): 0.5%
% Visual Injury Obs ([1]; 50 g ai/ha alone, 20-22 d): 0%
% Visual Injury Obs ([1]; 100 g ai/ha alone, 20-22 d): 0%
% Visual Injury Obs ([1]; 200 g ai/ha alone, 20-22 d): 0%
% Visual Injury Obs ([1]; quinclorac 50 g ai/ha): 0%
Visual Injury Obs ([1]; quinclorac 50 g ai/ha): 0%
% Visual Injury Obs ([1]; quinclorac 100 g ai/ha): 0%
Visual Injury Obs ([1]; quinclorac 100 g ai/ha): 0%
% Visual Injury Obs ([1]; quinclorac 200 g ai/ha): 0%
Visual Injury Obs ([1]; quinclorac 200 g ai/ha): 0%
% Visual Injury Obs ([2]; 50 g ai/ha alone, 20-22 d): 0%
% Visual Injury Obs ([2]; 100 g ai/ha alone, 20-22 d): 0%
% Visual Injury Obs ([2]; 200 g ai/ha alone, 20-22 d): 0%
% Visual Injury Obs ([2]; quinclorac 50 g ai/ha): 0%
Visual Injury Obs ([2]; quinclorac 50 g ai/ha): 0%
% Visual Injury Obs ([2]; quinclorac 100 g ai/ha): 0%
Visual Injury Obs ([2]; quinclorac 100 g ai/ha): 0%
% Visual Injury Obs ([2]; quinclorac 200 g ai/ha): 0%
Visual Injury Obs ([2]; quinclorac 200 g ai/ha): 0%
% Visual Injury Obs ([3]; 50 g ai/ha alone, 20-22 d): 0%
% Visual Injury Obs ([3]; 100 g ai/ha alone, 20-22 d): 0%
% Visual Injury Obs ([3]; 200 g ai/ha alone, 20-22 d): 0%
% Visual Injury Obs ([3]; quinclorac 50 g ai/ha): 0%
Visual Injury Obs ([3]; quinclorac 50 g ai/ha): 0%
% Visual Injury Obs ([3]; quinclorac 100 g ai/ha): 0%
Visual Injury Obs ([3]; quinclorac 100 g ai/ha): 0%
% Visual Injury Obs ([3]; quinclorac 200 g ai/ha): 0%
Visual Injury Obs ([3]; quinclorac 200 g ai/ha): 0%
% Visual Injury Obs ([4]; 50 g ai/ha alone, 20-22 d): 0%
% Visual Injury Obs ([4]; 100 g ai/ha alone, 20-22 d): 0%
% Visual Injury Obs ([4]; 200 g ai/ha alone, 20-22 d): 0%
% Visual Injury Obs ([4]; quinclorac 50 g ai/ha): 0%
Visual Injury Obs ([4]; quinclorac 50 g ai/ha): 0%
% Visual Injury Obs ([4]; quinclorac 100 g ai/ha): 0%
Visual Injury Obs ([4]; quinclorac 100 g ai/ha): 0%
% Visual Injury Obs ([4]; quinclorac 200 g ai/ha): 0%
Visual Injury Obs ([4]; quinclorac 200 g ai/ha): 0%
% Visual Injury Obs ([5]; 50 g ai/ha alone, 20-22 d): 0%
% Visual Injury Obs ([5]; 100 g ai/ha alone, 20-22 d): 0%
% Visual Injury Obs ([5]; 200 g ai/ha alone, 20-22 d): 0%
% Visual Injury Obs ([5]; quinclorac 50 g ai/ha): 0%
Visual Injury Obs ([5]; quinclorac 50 g ai/ha): 0%
% Visual Injury Obs ([5]; quinclorac 100 g ai/ha): 0%
Visual Injury Obs ([5]; quinclorac 100 g ai/ha): 0%
% Visual Injury Obs ([5]; quinclorac 200 g ai/ha): 0%
Visual Injury Obs ([5]; quinclorac 200 g ai/ha): 0%
% Visual Injury Obs ([6]; 50 g ai/ha alone, 20-22 d): 0%
% Visual Injury Obs ([6]; 100 g ai/ha alone, 20-22 d): 0%
% Visual Injury Obs ([6]; 200 g ai/ha alone, 20-22 d): 0%
% Visual Injury Obs ([6]; quinclorac 50 g ai/ha): 0%
Visual Injury Obs ([6]; quinclorac 50 g ai/ha): 0%
% Visual Injury Obs ([6]; quinclorac 100 g ai/ha): 0%
Visual Injury Obs ([6]; quinclorac 100 g ai/ha): 0%
% Visual Injury Obs ([6]; quinclorac 200 g ai/ha): 0%
Visual Injury Obs ([6]; quinclorac 200 g ai/ha): 0%
